The results in this text go back to patent publication US20240018153A1, “BENZENESULFONAMIDE DERIVATIVES AND USES THEREOF” (2692372 ONTARIO, INC., priority 2020, published 2024).

Experiment [1] has as its target T1, BTK (Homo sapiens (Human), UniProt Q06187). The experiment can be described thus: Time-dependent inhibition of BTK (HTRF). The experiment is classed as biochemical. The following applies: pre-incubation 0-45 min; for Time-dependent inhibition of BTK: product formation versus pre-incubation time: mono-exponential decay fit. The method, then: For the time-dependent inhibition experiments, the activity of BTK kinases was monitored using a HTRF® KinEASE-TK kit from Cisbio (62TK0PEC) as described above. […] The pre incubation times were 0, 1, 3, 5, 10, 15, 30 and 45 min. After the preincubation, reaction was initiated by adding biotinylated substrate and ATP and the reaction was allowed to proceed for 45 min. […] After 60 min of incubation, the fluorescence emission was measured at 620 nm and 665 nm. The ratio of Em 665 nm to Em 620 nm was proportional to the amount of substrate phosphorylated by the kinase. Product formation vs pre-incubation time data were fitted to a one phase exponential decay equation using GraphPad Prism. The same product formation vs inhibitor concentration data were also fitted to a log(antagonist) vs. response—Variable slope equation in GraphPad Prism to provide IC50 values at different pre incubation times.

The target of experiment [2] is T1, BTK. The experiment can be described thus: Jump dilution experiment, BTK. The format is biochemical. Particulars: 1.5-h incubation, 142 nM BTK, 10×IC50 compound, 100-fold dilution. The method, then:
Sample containing only DMSO vehicle was used as a positive (full activity) control while sample with no enzyme was used as a negative (zero activity) control. After the preincubation, the mixture was diluted 100-fold into a reaction mixture containing 1 uM biotinylated substrate and 28 uM ATP and the reaction was allowed to proceed for various time points (2, 5, 10, 15, 20, 30, 45 and 60 min), at which the reaction was terminated by adding 1 ul of 0.5 M EDTA. 62.5 nM SA-XL665 and 100-fold diluted europium labelled antibody (Eu-Ab), diluted in 1× detection buffer, was added as detection mixture. After 60 min of incubation, the fluorescence emission was measured at 620 nm and 665 nm. The ratio of Em 665 nm to Em 620 nm was proportional to the amount of substrate phosphorylated by the kinase.

In experiment [3] the target is His-tagged BTK protein (SEQ ID NO: 1) (Homo sapiens (Human), UniProt Q06187). The experiment can be described thus: Intact mass analysis (LC-MS/MS) of covalent modification. The experiment is classed as binding. The following applies: His-tagged BTK (unmodified 32,650 Da) incubated with compound. The method, then: The covalent modification of the proteins with the compounds were evaluated using intact mass analysis by liquid chromatography-mass spectrometry instrument (LC-MS/MS).
His-tagged BTK protein (SEQ ID NO: 1), sequence (Q06187 other isoform, or with tags, fused parts or gaps): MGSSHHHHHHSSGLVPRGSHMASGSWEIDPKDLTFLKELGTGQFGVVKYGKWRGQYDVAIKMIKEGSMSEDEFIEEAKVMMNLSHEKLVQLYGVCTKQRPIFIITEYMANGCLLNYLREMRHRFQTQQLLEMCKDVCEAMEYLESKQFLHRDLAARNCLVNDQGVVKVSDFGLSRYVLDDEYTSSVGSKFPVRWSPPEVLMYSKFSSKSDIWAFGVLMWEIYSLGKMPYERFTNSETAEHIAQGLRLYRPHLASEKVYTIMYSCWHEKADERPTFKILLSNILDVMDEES
The reaction solution (20 μL) was prepared in 96-well plate and contained the protein (2 μM), the compound (100 μM), HEPES buffer (20 mM, pH 8), 2% DMSO, 2% glycerol, and 150 mM NaCl. The reaction was allowed to proceed for 24 h at 25° C. The reaction solution (1 μL) was injected into the LC/MS/MS without any further sample preparation.
The LC-MS/MS instrument comprises of a Waters G2-XS quadrupole-time of flight (QTof) mass spectrometer and a Waters Acuity I-class Ultra-High Performance Liquid Chromatography (UPLC) system. The I-class UPLC system includes a binary solvent manager (BSM), and a Acquity sample manager (SM). The mobile phase consisted of: A) 0.1% (v/v) formic acid in MilliQ water; B) 0.1% (v/v) formic acid acetonitrile. Gradients were run over 5 min and proceeded as follows: A:B, 85:15, 0.0-0.7 min, 85:15→15:85, 0.7-1.5 min, 10:90, 1.5-4 min, 10:90→85:15, 4-4.5 min, 85:15, 4.5-5 min. The analytical column was a Waters BEH C4 column 1.7 μm (50×1 mm) column with pore sizes of […]. The TOF MS data was collected in positive ion mode (m/z of 400-2000 Da) using MassLynx software (Waters).
The spectral deconvolution was performed using UNIFI software (Waters). The added mass of the protein upon covalent modification to cysteine residues were specified. Multiple modification of up to 8 cysteine was allowed. All the adducts with signal intensities of <2% of the base peak were ignored. The % modification was calculated as the adduct signal intensity over the total intensities of the protein peaks and the adducts.

T1 sequence (Q06187 whole entry): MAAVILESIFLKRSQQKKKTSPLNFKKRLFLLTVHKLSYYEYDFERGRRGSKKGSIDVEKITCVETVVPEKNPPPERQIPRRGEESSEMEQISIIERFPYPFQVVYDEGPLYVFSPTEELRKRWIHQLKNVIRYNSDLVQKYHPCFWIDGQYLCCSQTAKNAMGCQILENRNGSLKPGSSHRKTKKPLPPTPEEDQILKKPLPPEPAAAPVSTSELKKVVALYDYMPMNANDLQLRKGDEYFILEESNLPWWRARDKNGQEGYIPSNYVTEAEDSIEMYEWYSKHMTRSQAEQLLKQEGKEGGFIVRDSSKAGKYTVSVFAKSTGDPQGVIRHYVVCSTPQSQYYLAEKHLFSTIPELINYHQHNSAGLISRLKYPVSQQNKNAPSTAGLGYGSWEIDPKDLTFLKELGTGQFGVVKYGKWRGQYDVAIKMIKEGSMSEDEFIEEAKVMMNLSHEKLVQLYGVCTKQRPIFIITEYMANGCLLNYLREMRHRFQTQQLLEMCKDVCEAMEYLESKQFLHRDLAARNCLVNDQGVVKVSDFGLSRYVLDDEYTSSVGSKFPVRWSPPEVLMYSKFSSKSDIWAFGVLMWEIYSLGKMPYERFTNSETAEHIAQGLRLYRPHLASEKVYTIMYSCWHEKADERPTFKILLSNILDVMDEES

Turning to `C[S@+]([O-])c1c(F)c(F)c(F)c(F)c1C(=O)N1CC(n2nc(-c3ccc(Oc4ccccc4)cc3)c3c(N)ncnc32)C1` (racemic) [Compound I-37, (3-(4-amino-3-(4-phenoxyphenyl)-1H-pyrazolo[3,4-d]pyrimidin-1-yl)azetidin-1-yl)(2,3,4,5-tetrafluoro-6-(methylsulfinyl)phenyl)methanone], at BTK [1], the “Time-dependent inhibition of BTK: product formation versus pre-incubation time” value is on record as “concentration-dependent first order loss of enzyme activity” and the “Time-dependent inhibition of BTK: IC50 values versus pre-incubation time” value is given as “decrease as pre-incubation times increase”. Besides, the “residual activity of BTK after jump dilution, relative to enzyme incubated with DMSO alone” value at BTK [2] is “less than 1%”.

As to `Nc1ncnc2c1c(-c1ccc(Oc3ccccc3)cc1)nn2[C@@H]1CCN(S(=O)(=O)c2c(F)c(F)c(F)c(F)c2OCF)C1` [Compound I-24, (R)-3-(4-phenoxyphenyl)-1-(1-((2,3,4,5-tetrafluoro-6-(fluoromethoxy)phenyl)sulfonyl)pyrrolidin-3-yl)-1H-pyrazolo[3,4-d]pyrimidin-4-amine], the “covalent adduct mass (intact mass analysis, modification by one molecule)” value in experiment [3] is on record as 33,263 Da.

Regarding `CN(CCn1nc(-c2ccc(Oc3ccccc3)cc2)c2c(N)ncnc21)C(=O)c1c(F)c(F)c(F)c(F)c1S(N)(=O)=O` [Compound I-33, N-(2-(4-amino-3-(4-phenoxyphenyl)-1H-pyrazolo[3,4-d]pyrimidin-1-yl)ethyl)-2,3,4,5-tetrafluoro-N-methyl-6-sulfamoylbenzamide], at BTK [1], the “Time-dependent inhibition of BTK: product formation versus pre-incubation time” value is reported as “concentration-dependent first order loss of enzyme activity” and the “Time-dependent inhibition of BTK: IC50 values versus pre-incubation time” value was “decrease as pre-incubation times increase”. On BTK [2], the “residual activity of BTK after jump dilution, relative to enzyme incubated with DMSO alone” value is recorded as “less than 1%”.

As to `Nc1ncnc2c1c(-c1ccc(Oc3ccccc3)cc1)nn2CCCNC(=O)c1c(F)c(F)c(F)c(F)c1S(N)(=O)=O` [Compound I-34, N-(3-(4-amino-3-(4-phenoxyphenyl)-1H-pyrazolo[3,4-d]pyrimidin-1-yl)propyl)-2,3,4,5-tetrafluoro-6-sulfamoylbenzamide], at BTK [1], the “Time-dependent inhibition of BTK: product formation versus pre-incubation time” value is listed as “concentration-dependent first order loss of enzyme activity” and the “Time-dependent inhibition of BTK: IC50 values versus pre-incubation time” value was “decrease as pre-incubation times increase”. For the same compound, the “residual activity of BTK after jump dilution, relative to enzyme incubated with DMSO alone” value on BTK [2] was “less than 1%”.

Regarding `CS(=O)(=O)c1c(F)c(F)c(F)c(F)c1C(=O)NCCn1nc(-c2ccc(Oc3ccccc3)cc2)c2c(N)ncnc21` [Compound I-38, N-(2-(4-amino-3-(4-phenoxyphenyl)-1H-pyrazolo[3,4-d]pyrimidin-1-yl)ethyl)-2,3,4,5-tetrafluoro-6-(methylsulfonyl)benzamide], on BTK [1], the “Time-dependent inhibition of BTK: product formation versus pre-incubation time” value is “concentration-dependent first order loss of enzyme activity” and the “Time-dependent inhibition of BTK: IC50 values versus pre-incubation time” value is “decrease as pre-incubation times increase”. Moreover, the “residual activity of BTK after jump dilution, relative to enzyme incubated with DMSO alone” value on BTK [2] is recorded as “less than 1%”.

Consider `CN(C)S(=O)(=O)c1c(F)c(F)c(F)c(F)c1C(=O)NCCn1nc(-c2ccc(Oc3ccccc3)cc2)c2c(N)ncnc21` [Compound I-40, N-(2-(4-amino-3-(4-phenoxyphenyl)-1H-pyrazolo[3,4-d]pyrimidin-1-yl)ethyl)-2-(N,N-dimethylsulfamoyl)-3,4,5,6-tetrafluorobenzamide], for which, on BTK [1], the “Time-dependent inhibition of BTK: product formation versus pre-incubation time” value is reported as “concentration-dependent first order loss of enzyme activity” and the “Time-dependent inhibition of BTK: IC50 values versus pre-incubation time” value was “decrease as pre-incubation times increase”. In addition, on BTK [2], the “residual activity of BTK after jump dilution, relative to enzyme incubated with DMSO alone” value was “less than 1%”.
